In assay [1] the target is T1, GLS1 (purified recombinant human GAC) (Homo sapiens, UniProt O94925).
T1 sequence (O94925 55-598 isoform O94925-3 limits assumed): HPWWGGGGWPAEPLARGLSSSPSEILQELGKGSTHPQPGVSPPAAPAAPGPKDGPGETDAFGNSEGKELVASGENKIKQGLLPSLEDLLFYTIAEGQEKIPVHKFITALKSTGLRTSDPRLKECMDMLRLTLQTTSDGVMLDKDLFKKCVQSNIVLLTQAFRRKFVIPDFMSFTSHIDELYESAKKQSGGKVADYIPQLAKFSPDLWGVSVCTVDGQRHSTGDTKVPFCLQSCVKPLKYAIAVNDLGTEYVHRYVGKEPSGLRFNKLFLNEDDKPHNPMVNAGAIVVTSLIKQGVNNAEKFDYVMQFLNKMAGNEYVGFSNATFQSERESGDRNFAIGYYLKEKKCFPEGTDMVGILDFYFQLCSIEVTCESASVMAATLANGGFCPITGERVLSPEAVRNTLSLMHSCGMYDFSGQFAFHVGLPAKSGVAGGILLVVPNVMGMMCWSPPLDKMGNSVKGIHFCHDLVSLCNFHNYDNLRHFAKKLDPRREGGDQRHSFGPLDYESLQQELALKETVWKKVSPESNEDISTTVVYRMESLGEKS
The assay is described as follows: GLS1 enzymatic activity assay (dual-coupled, Amplex UltraRed/resorufin). Format: biochemical. In short, it runs like this: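 In this coupled fluorometric format, phosphate-activated GAC (2 nM, 50 mM phosphate) is pre-exposed to compound for 10 min before 1 mM glutamine addition. Product is tracked as resorufin (530/590 nm) over time or at 20 min, and potency is derived by logistic fitting.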

A further assay deals with A549 cells. The assay can be described thus: A549 proliferation (viability) assay, Cell Titer Fluor, 72 hours. Format: cell-based. Particulars: Homo sapiens. In outline: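 Compound was added to A549 cells (1000/well, pre-grown 24 h in RPMI 1640 plus 10% dialyzed FBS) at 0.5% DMSO and left 72 h under 37 °C, 5% CO2, ambient O2. Live-cell fluorescence (Cell Titer Fluor) gave the EC50.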

A value given as a limit tells only on which side of the number the result lay.

By IC50 is commonly meant the concentration needed to halve the response being measured. As usually defined, the EC50 is the concentration needed to bring the measured effect to its halfway point. Low readings indicate an effect from little substance, high ones a need for much substance. For the molecule `N#CC1CCN(CC(=O)Nc2ccn(CCC(F)Cn3cc(C(=O)NCc4cccc(OC(F)(F)F)c4)nn3)c(=O)c2)CC1` (stereo not shown) [Example 256, 1-(4-{4-[2-(4-cyanopiperidin-1-yl)acetamido]-2-oxo-1,2-dihydropyridin-1-yl}-2-fluorobutyl)-N-{[3-(trifluoromethoxy)phenyl]methyl}-1H-1,2,3-triazole-4-carboxamide], the half-inhibitory concentration (IC50) in assay [1] is below 100 nM. The EC50 in the assay on A549 cells was 500 to 5000 nM.

For `O=C(CN1CCCC(F)C1)Nc1ccn(CCC(F)Cn2cc(C(=O)NCc3cccc(OC(F)(F)F)c3)nn2)c(=O)c1F` (stereo not shown) [Example 291, 1-(2-fluoro-4-{3-fluoro-4-[2-(3-fluoropiperidin-1-yl)acetamido]-2-oxo-1,2-dihydropyridin-1-yl}butyl)-N-{[3-(trifluoromethoxy)phenyl]methyl}-1H-1,2,3-triazole-4-carboxamide], in assay [1], the IC50 was below 100 nM. The molecule also displayed a half-maximal effective concentration (EC50) in the assay with A549 cells below 100 nM.

As to `O=C(Nc1ccn(CCC(F)Cn2cc(C(=O)NCc3cccc(OC(F)(F)F)c3)nn2)c(=O)c1F)C(=O)c1ccccc1` (stereo not shown) [Example 315, 1-{2-fluoro-4-[3-fluoro-2-oxo-4-(2-oxo-2-phenylacetamido)-1,2-dihydropyridin-1-yl]butyl}-N-{[3-(trifluoromethoxy)phenyl]methyl}-1H-1,2,3-triazole-4-carboxamide], in assay [1], the IC50 is below 100 nM. This molecule displayed an EC50 in the assay with A549 cells below 100 nM.

For the molecule `O=C(Nc1ccn(CCC(F)Cn2cc(C(=O)NCc3cc(C(F)(F)F)ccn3)nn2)c(=O)c1F)C(=O)N1CCCCC1` (stereo not shown) [Example 423, 1-(2-fluoro-4-{3-fluoro-2-oxo-4-[2-oxo-2-(piperidin-1-yl)acetamido]-1,2-dihydropyridin-1-yl}butyl)-N-{[4-(trifluoromethyl)pyridin-2-yl]methyl}-1H-1,2,3-triazole-4-carboxamide], the IC50 in assay [1] is below 100 nM. In addition, in the assay on A549 cells, the EC50 was in the range of 100 to 500 nM.

For `O=C(Nc1ccn(CCC(F)Cn2cc(C(=O)NCc3cccc(OC(F)(F)F)c3)nn2)c(=O)n1)OCc1ccccc1F` (stereo not shown) [Example 489, (2-fluorophenyl)methyl N-(1-{3-fluoro-4-[4-({[3-(trifluoro-methoxy)phenyl]methyl}carbamoyl)-1H-1,2,3-triazol-1-yl]butyl}-2-oxo-1,2-dihydropyrimidin-4-yl)carbamate], the IC50 in assay [1] was below 100 nM. In the assay on A549 cells, this molecule returned an EC50 below 100 nM.

For `C[C@@H]1CCN(C(=O)C(=O)Nc2ccn(CCC(F)Cn3cc(C(=O)NCc4cc(OC(F)(F)F)ccc4F)nn3)c(=O)c2F)C1` (stereo partly drawn) [Example 431, 1-[2-fluoro-4-(3-fluoro-4-{2-[(3R)-3-methylpyrrolidin-1-yl]-2-oxoacetamido}-2-oxo-1,2-dihydropyridin-1-yl)butyl]-N-{[2-fluoro-5-(trifluoromethoxy)phenyl]methyl}-1H-1,2,3-triazole-4-carboxamide], in assay [1], the IC50 is below 100 nM. This molecule also had an EC50 with A549 cells below 100 nM.

As to `O=C(NCc1cccc(OC(F)(F)F)c1)c1cn(CC(F)CCn2ccc(NC(=O)C3CCCC3)c(F)c2=O)nn1` (stereo not shown) [Example 342, 1-[4-(4-cyclopentaneamido-3-fluoro-2-oxo-1,2-dihydropyridin-1-yl)-2-fluorobutyl]-N-{[3-(trifluoromethoxy)phenyl]methyl}-1H-1,2,3-triazole-4-carboxamide], the IC50 in assay [1] was below 100 nM. In addition, the EC50 in the assay with A549 cells is below 100 nM.

For `O=C(CC1CCCCC1)Nc1ccn(CCC(F)Cn2cc(C(=O)NCc3cccc(OC(F)(F)F)c3)nn2)c(=O)c1` (stereo not shown) [Example 175, 1-{4-[4-(2-cyclohexylacetamido)-2-oxo-1,2-dihydropyridin-1-yl]-2-fluorobutyl}-N-{[3-(trifluoromethoxy)phenyl]methyl}-1H-1,2,3-triazole-4-carboxamide], the IC50 in assay [1] was below 100 nM. The EC50 in the assay with A549 cells is below 100 nM.

As for `O=C(CC1CCC1)Nc1ccn(CCC(F)Cn2cc(C(=O)NCc3cccc(OC(F)(F)F)c3)nn2)c(=O)c1F` (stereo not shown) [Example 339, 1-{4-[4-(2-cyclobutylacetamido)-3-fluoro-2-oxo-1,2-dihydropyridin-1-yl]-2-fluorobutyl}-N-{[3-(trifluoromethoxy)phenyl]methyl}-1H-1,2,3-triazole-4-carboxamide], the IC50 in assay [1] was below 100 nM. This molecule had an EC50 in the assay with A549 cells below 100 nM.

With `Cc1ccc(CNC(=O)c2nnc(CCCCn3ccc(NC(=O)C(=O)N4CCCCC4)c(F)c3=O)s2)cn1` [Example 463, 5-(4-{3-fluoro-2-oxo-4-[2-oxo-2-(piperidin-1-yl)acetamido]-1,2-dihydropyridin-1-yl}butyl)-N-[(6-methylpyridin-3-yl)methyl]-1,3,4-thiadiazole-2-carboxamide], the IC50 in assay [1] is 100 to 500 nM. The molecule also had an EC50 in the assay with A549 cells of 100 to 500 nM.

In the case of `O=C(Cc1ccccc1)Nc1ccc(CCCCn2ccc(NC(=O)NC3CCCCC3)nc2=O)nn1` [Example 88, N-[6-(4-{4-[(cyclohexylcarbamoyl)amino]-2-oxo-1,2-dihydropyrimidin-1-yl}butyl)pyridazin-3-yl]-2-phenylacetamide], the IC50 in assay [1] was in the range of 100 to 500 nM. Moreover, in the assay with A549 cells, the EC50 was 500 to 5000 nM.

Regarding `CC1CCCN(C(=O)C(=O)Nc2ccn(CCC(F)Cn3cc(C(=O)NCc4cccc(OC(F)(F)F)c4)nn3)c(=O)c2F)C1` (stereo not shown) [Example 418, 1-(2-fluoro-4-{3-fluoro-4-[2-(3-methylpiperidin-1-yl)-2-oxoacetamido]-2-oxo-1,2-dihydropyridin-1-yl}butyl)-N-{[3-(trifluoromethoxy)phenyl]methyl}-1H-1,2,3-triazole-4-carboxamide], the IC50 in assay [1] is below 100 nM. The molecule further yielded an EC50 in the assay with A549 cells below 100 nM.

Regarding `O=C(CC1CCC1)Nc1ccn(CCC(F)Cn2cc(C(=O)NCc3ccc(CF)nc3)nn2)c(=O)c1F` (stereo not shown) [Example 374, 1-{4-[4-(2-cyclobutylacetamido)-3-fluoro-2-oxo-1,2-dihydropyridin-1-yl]-2-fluorobutyl}-N-{[6-(fluoromethyl)pyridin-3-yl]methyl}-1H-1,2,3-triazole-4-carboxamide], the IC50 in assay [1] is below 100 nM. Moreover, the EC50 in the assay on A549 cells was in the range of 100 to 500 nM.

For the molecule `CC(=O)N1CCC(CC(=O)Nc2ccn(CCC(F)Cn3cc(C(=O)NCc4cccc(OC(F)(F)F)c4)nn3)c(=O)c2)CC1` (stereo not shown) [Example 244, 1-(4-{4-[2-(1-acetylpiperidin-4-yl)acetamido]-2-oxo-1,2-dihydropyridin-1-yl}-2-fluorobutyl)-N-{[3-(trifluoromethoxy)phenyl]methyl}-1H-1,2,3-triazole-4-carboxamide], in assay [1], the IC50 was below 100 nM. Besides, the EC50 with A549 cells fell in the range of 500 to 5000 nM.

With `Nc1ccn(CCC(F)Cn2cc(C(=O)NCc3cc(OC(F)(F)F)ccc3F)nn2)c(=O)c1F` (stereo not shown) [Example 430, 1-[4-(4-amino-3-fluoro-2-oxo-1,2-dihydropyridin-1-yl)-2-fluorobutyl]-N-{[2-fluoro-5-(trifluoromethoxy)phenyl]methyl}-1H-1,2,3-triazole-4-carboxamide], in assay [1], the IC50 lay in the range of 500 to 5000 nM. In the assay on A549 cells, this molecule showed an EC50 above 5000 nM.

In the case of `O=C(CC1CCC1)Nc1ccn(CCC(F)Cn2cc(C(=O)NCc3ncccc3F)nn2)c(=O)c1F` (stereo not shown) [Example 356, 1-{4-[4-(2-cyclobutylacetamido)-3-fluoro-2-oxo-1,2-dihydropyridin-1-yl]-2-fluorobutyl}-N-[(3-fluoropyridin-2-yl)methyl]-1H-1,2,3-triazole-4-carboxamide], the IC50 in assay [1] fell in the range of 100 to 500 nM. The molecule further came in with a concentration giving a half-maximal response (EC50) in the assay with A549 cells of 100 to 500 nM.

Turning to `O=C(Cc1ccccc1)Nc1ccn(CCC(F)Cn2cc(C(=O)NCc3cccc(C(F)(F)F)n3)nn2)c(=O)c1F` (stereo not shown) [Example 317, 1-{2-fluoro-4-[3-fluoro-2-oxo-4-(2-phenylacetamido)-1,2-dihydropyridin-1-yl]butyl}-N-{[6-(trifluoromethyl)pyridin-2-yl]methyl}-1H-1,2,3-triazole-4-carboxamide], the concentration for half-maximal inhibition (IC50) in assay [1] is below 100 nM. The same molecule came in with an EC50 in the assay with A549 cells below 100 nM.

Turning to `Cc1ccc(CNC(=O)c2cn(CC(F)CCn3ccc(NC(=O)OC4CCC4)c(F)c3=O)nn2)cn1` (stereo not shown) [Example 396, cyclobutyl N-{3-fluoro-1-[3-fluoro-4-(4-{[(6-methylpyridin-3-yl)methyl]carbamoyl}-1H-1,2,3-triazol-1-yl)butyl]-2-oxo-1,2-dihydropyridin-4-yl}carbamate], in assay [1], the IC50 was 100 to 500 nM. In the assay with A549 cells, this molecule yielded an EC50 below 100 nM.

With `O=C(Nc1ccn(CCC(F)Cn2cc(C(=O)NCc3cccc(OC(F)(F)F)c3)nn2)c(=O)n1)OCc1cccc(OC(F)(F)F)c1` (stereo not shown) [Example 491, 3-(trifluoromethoxy)benzyl(1-(3-fluoro-4-(4-((3-(trifluoromethoxy)benzyl)carbamoyl)-1H-1,2,3-triazol-1-yl)butyl)-2-oxo-1,2-dihydropyrimidin-4-yl)carbamate], the IC50 in assay [1] is below 100 nM. The same molecule registered an EC50 in the assay on A549 cells below 100 nM.

As to `O=C(Cc1ccccn1)Nc1ccn(CCCCn2cc(C(=O)NCc3cccc(OC(F)(F)F)c3)nn2)c(=O)c1` [Example 6, 1-(4-(2-oxo-4-(2-(pyridin-2-yl)acetamido)pyridin-1 (2H)-yl)butyl)-N-(3-(trifluoromethoxy)benzyl)-1H-1,2,3-triazole-4-carboxamide], the IC50 in assay [1] is below 100 nM. The same molecule registered an EC50 in the assay on A549 cells of 500 to 5000 nM.

The record behind these values is patent US20160002204A1 (Board of Regents, The University of Texas System, priority 2014, published 2016).
